Values quoted from earlier work, collected in patent publication US11028348B2, “Naturally-derived antimicrobial cleaning solutions” (ProNatural Brands LLC, priority 2014, dated 2021).

Details: standard pKa

O=C(O)CC(O)(CC(=O)O)C(=O)O [citric acid]
pKa1: 3.1 | pKa2: 4.8 | pKa3: 6.4
